The text below walks through data of patent publication US20130338142A1, “IMIDAZOPYRAZINE SYK INHIBITORS” (Gilead Connecticut, Inc., priority 2012, published 2013).

The target of this assay is Syk (Homo sapiens, UniProt P43405). Briefly: High throughput Syk assay (TR-FRET, KinEASE). Particulars: Syk TR-FRET assay of Example B2; 3 μM ATP, 0.5 nM Syk. Type of assay: biochemical. The procedure: The following high throughput Syk assay was performed on the compounds of Table 1 as follows.
Syk activity was measured by detecting phosphorylated peptide substrate formation using antibody against phosphorylated peptide substrate. This is a time-resolved fluorescence resonance energy transfer (TR-FRET) immunoassay, based on the KinEASE Assay (Cisbio). […] Test compounds (in DMSO) were spotted into 384 well plates using a Labcyte® Echo 550 Liquid Handling System prior to addition of Syk enzyme and peptide substrate. Reaction solutions were delivered using a Multi-Flo (Bio-Tek Instruments). The enzyme and peptide solution was incubated with compound for 60 minutes at room temp before the reaction was initiated by the addition of ATP. […] The europium donor was excited using a 340-nm excitation filter with a 30-nm band pass. Energy transfer to the tracer was measured using a filter centered at 665 nm with a 10 nm bandpass. This signal was then referenced to the emission from europium peak, using a 615 nm, 10-nm bandpass filter. The “emission ratio” was calculated as the 665 nm signal divided by the 615 nm signal. Percentage of inhibition was calculated as below:
% Inhibition=100×(RatioSample−Ratio0% Inhibition)/(Ratio100% Inhibition−Ratio0% Inhibition)
Background: Time-resolved FRET reads energy transfer from a long-lived donor to a nearby acceptor.
As to `c1cn2cc(-c3ccc4c(c3)CNCCO4)nc(Nc3ccc(N4CCOCC4)cc3)c2n1` [Compound 78, N-(4-morpholinophenyl)-6-(2,3,4,5-tetrahydrobenzo[f][1,4]oxazepin-7-yl)imidazo[1,2-a]pyrazin-8-amine], the half-maximal inhibitory concentration (IC50) came out at 18 nM.
With `COc1cc(Nc2nc(-c3cnc4c(c3)NCCO4)cn3ccnc23)ccc1N1CC2COCC2C1` (stereo not shown) [Compound 99, 6-(2,3-dihydro-1H-pyrido[2,3-b][1,4]oxazin-7-yl)-N-(3-methoxy-4-(tetrahydro-1H-furo[3,4-c]pyrrol-5(3H)-yl)phenyl)imidazo[1,2-a]pyrazin-8-amine] the figure was 16 nM; with `CON=C1CCN(c2ccc(Nc3nc(-c4cnc5c(c4)NCCO5)cn4ccnc34)cc2OC)CC1` [Compound 106, 1-(4-((6-(2,3-dihydro-1H-pyrido[2,3-b][1,4]oxazin-7-yl)imidazo[1,2-a]pyrazin-8-yl)amino)-2-methoxyphenyl)piperidin-4-one O-methyl oxime], 6 nM.
With `COc1cc(Nc2nc(-c3cnc4c(c3)NCCO4)cn3ccnc23)ccc1N1CCN(C2COC2)C(C)(C)C1` [Compound 84, 6-(2,3-dihydro-1H-pyrido[2,3-b][1,4]oxazin-7-yl)-N-(4-(3,3-dimethyl-4-(oxetan-3-yl)piperazin-1-yl)-3-methoxyphenyl)imidazo[1,2-a]pyrazin-8-amine] the figure was 10 nM.
With `CN(C)C[C@@H]1CN(c2ccc(Nc3nc(-c4cnc5c(c4)NCCO5)cn4ccnc34)cc2)CCO1` [Compound 61, (R)-6-(2,3-dihydro-1H-pyrido[2,3-b][1,4]oxazin-7-yl)-N-(4-(2-((dimethylamino)methyl)morpholino)phenyl)imidazo[1,2-a]pyrazin-8-amine] the figure was 9 nM; with `COc1cc(Nc2nc(-c3cnc4c(c3)NCCO4)cn3ccnc23)ccc1N(C)C` [Compound 35, N4-(6-(2,3-dihydro-1H-pyrido[2,3-b][1,4]oxazin-7-yl)imidazo[1,2-a]pyrazin-8-yl)-2-methoxy-N1,N1-dimethylbenzene-1,4-diamine], 2 nM; with `COc1cc(Nc2nc(-c3cnc4c(c3)NCCO4)cn3ccnc23)ccc1OC1CCC1` [Compound 29, N-(4-cyclobutoxy-3-methoxyphenyl)-6-(2,3-dihydro-1H-pyrido[2,3-b][1,4]oxazin-7-yl)imidazo[1,2-a]pyrazin-8-amine], 7 nM.
With `C[C@H](O)[C@H]1CN(c2ccc(Nc3nc(-c4cnc5c(c4)NCCO5)cn4ccnc34)cc2)CCO1` [Compound 5, (S)-1-((R)-4-(4-((6-(2,3-dihydro-1H-pyrido[2,3-b][1,4]oxazin-7-yl)imidazo[1,2-a]pyrazin-8-yl)amino)phenyl)morpholin-2-yl)ethanol], half-maximal inhibition (IC50) required 6 nM.
Then `COc1cc(Nc2nc(-c3cnc4c(c3)NCCO4)cn3ccnc23)ccc1N1CCOC(C)(C)C1` [Compound 81, 6-(2,3-dihydro-1H-pyrido[2,3-b][1,4]oxazin-7-yl)-N-(4-(2,2-dimethylmorpholino)-3-methoxyphenyl)imidazo[1,2-a]pyrazin-8-amine], with 14 nM; and `COc1cc(Nc2nc(-c3cnc4c(c3)N(C)C(=O)CO4)cn3ccnc23)ccc1N1CCOCC1` [Compound 60, 7-(8-((3-methoxy-4-morpholinophenyl)amino)imidazo [1,2-a]pyrazin-6-yl)-1-methyl-1H-pyrido[2,3-b][1,4]oxazin-2(3H)-one], with 39 nM; and `COc1cc(Nc2nc(-c3cnc4c(c3)NCCO4)cn3ccnc23)ccc1N1CCC(=O)CC1` [Compound 104, 1-(4-((6-(2,3-dihydro-1H-pyrido[2,3-b][1,4]oxazin-7-yl)imidazo[1,2-a]pyrazin-8-yl)amino)-2-methoxyphenyl)piperidin-4-one], with 4 nM.
Then `c1cn2cc(-c3cnc4c(c3)NCCO4)nc(Nc3ccc(C4CCOCC4)cc3)c2n1` [Compound 39, 6-(2,3-dihydro-1H-pyrido[2,3-b][1,4]oxazin-7-yl)-N-(4-(tetrahydro-2H-pyran-4-yl)phenyl)imidazo[1,2-a]pyrazin-8-amine], with 7 nM.
In turn, `CO/N=C(/C)c1ccc(Nc2nc(-c3cnc4c(c3)NCCO4)cn3ccnc23)cc1` [Compound 108, (Z)-1-(4-((6-(2,3-dihydro-1H-pyrido[2,3-b][1,4]oxazin-7-yl)imidazo[1,2-a]pyrazin-8-yl)amino)phenyl)ethanone O-methyl oxime] showed a concentration for half-maximal inhibition (IC50) of 7 nM.
With `c1cn2cc(-c3cnc4c(c3)NCCO4)nc(Nc3ccc(N4CCN5CCOC[C@@H]5C4)cc3)c2n1` [Compound 82, (S)-6-(2,3-dihydro-1H-pyrido[2,3-b][1,4]oxazin-7-yl)-N-(4-(hexahydropyrazino[2,1-c][1,4]oxazin-8(1H)-yl)phenyl)imidazo[1,2-a]pyrazin-8-amine] the figure was 3 nM; with `COc1cc(Nc2nc(-c3cnc4c(c3)NCCS4)cn3ccnc23)ccc1N1CCOCC1` [Compound 58, 6-(2,3-dihydro-1H-pyrido[2,3-b][1,4]thiazin-7-yl)-N-(3-methoxy-4-morpholinophenyl)imidazo[1,2-a]pyrazin-8-amine], 2 nM.
The molecule `CO/N=C(\C)c1ccc(Nc2nc(-c3cnc4c(c3)NCCO4)cn3ccnc23)cc1` [Compound 107, (E)-1-(4-((6-(2,3-dihydro-1H-pyrido[2,3-b][1,4]oxazin-7-yl)imidazo[1,2-a]pyrazin-8-yl)amino)phenyl)ethanone O-methyl oxime] had an IC50 of 17 nM.
Consider `COc1cc(Nc2nc(-c3cnc4c(c3)NCCO4)cn3ccnc23)ccc1-n1ccnc1` [Compound 40, N-(4-(1H-imidazol-1-yl)-3-methoxyphenyl)-6-(2,3-dihydro-1H-pyrido[2,3-b][1,4]oxazin-7-yl)imidazo[1,2-a]pyrazin-8-amine], for which the IC50 is 21 nM.
For `COc1cc(Nc2nc(-c3ccc4c(c3)C(=O)NCCO4)cn3ccnc23)ccc1N1CCN(C2COC2)CC1` [Compound 55, 7-(8-((3-methoxy-4-(4-(oxetan-3-yl)piperazin-1-yl)phenyl)amino)imidazo[1,2-a]pyrazin-6-yl)-3,4-dihydrobenzo[f][1,4]oxazepin-5(2H)-one], the IC50 worked out at 8 nM.
In the case of `CC(C)n1cc(Nc2nc(-c3cnc4c(c3)NCCO4)cn3ccnc23)cn1` [Compound 36, 6-(2,3-dihydro-1H-pyrido[2,3-b][1,4]oxazin-7-yl)-N-(1-isopropyl-1H-pyrazol-4-yl)imidazo[1,2-a]pyrazin-8-amine], the concentration for half-maximal inhibition (IC50) was determined as 8 nM.
In turn, `COc1cc(Nc2nc(-c3cnc4c(c3)NCCO4)cn3ccnc23)ccc1N1CCC(=NO)CC1` [Compound 105, 1-(4-((6-(2,3-dihydro-1H-pyrido[2,3-b][1,4]oxazin-7-yl)imidazo[1,2-a]pyrazin-8-yl)amino)-2-methoxyphenyl)piperidin-4-one oxime] showed a concentration for half-maximal inhibition (IC50) of 5 nM.
Then `OC1(c2ccc(Nc3nc(-c4cnc5c(c4)NCCO5)cn4ccnc34)cc2)CCC1` [Compound 101, 1-(4-((6-(2,3-dihydro-1H-pyrido[2,3-b][1,4]oxazin-7-yl)imidazo[1,2-a]pyrazin-8-yl)amino)phenyl)cyclobutanol], with 7 nM.
Then `COc1cc(Nc2nc(-c3cnc4c(c3)NCCO4)cn3ccnc23)ccc1N1CC(C)(O)C1` [Compound 98, 1-(4-((6-(2,3-dihydro-1H-pyrido[2,3-b][1,4]oxazin-7-yl)imidazo[1,2-a]pyrazin-8-yl)amino)-2-methoxyphenyl)-3-methylazetidin-3-ol], with 33 nM; and `OC1(c2ccc(Nc3nc(-c4cnc5c(c4)NCCO5)cn4ccnc34)cc2)COC1` [Compound 102, 3-(4-((6-(2,3-dihydro-1H-pyrido[2,3-b][1,4]oxazin-7-yl)imidazo[1,2-a]pyrazin-8-yl)amino)phenyl)oxetan-3-ol], with 8 nM; and `COc1cc(Nc2nc(-c3cnc4c(c3)NCCO4)cn3ccnc23)ccc1N1CCC[C@](C)(O)C1` [Compound 52, (S)-1-(4-((6-(2,3-dihydro-1H-pyrido[2,3-b][1,4]oxazin-7-yl)imidazo[1,2-a]pyrazin-8-yl)amino)-2-methoxyphenyl)-3-methylpiperidin-3-ol], with 7 nM.
Then `COc1cc(Nc2nc(-c3ccc4c(c3)C(=O)NCCO4)cn3ccnc23)ccc1N1CCOCC1` [Compound 2, 7-(8-((3-methoxy-4-morpholinophenyl)amino)imidazo [1,2-a]pyrazin-6-yl)-3,4-dihydrobenzo[f][1,4]oxazepin-5(2H)-one], with 6 nM.
`COc1cc(Nc2nc(-c3ccc4c(c3)OCCN4)cn3ccnc23)ccc1N1CCN(C2COC2)CC1` [Compound 6, 6-(3,4-dihydro-2H-benzo[b][1,4]oxazin-7-yl)-N-(3-methoxy-4-(4-(oxetan-3-yl)piperazin-1-yl)phenyl)imidazo[1,2-a]pyrazin-8-amine] showed an IC50 of 7 nM.
In the case of `COc1cc(Nc2nc(-c3cnc4c(c3)NCCO4)cn3ccnc23)ccc1OC1COC1` [Compound 30, 6-(2,3-dihydro-1H-pyrido[2,3-b][1,4]oxazin-7-yl)-N-(3-methoxy-4-(oxetan-3-yloxy)phenyl)imidazo[1,2-a]pyrazin-8-amine], the IC50 is 2 nM.
With `CC(=O)N1CCN(c2ccc(Nc3nc(-c4cnc5c(c4)NCCO5)cn4ccnc34)cc2)CC1` [Compound 34] the figure was 4 nM.

What is called IC50 is the concentration at which inhibition is half-maximal.
